This passage reports TGI and GI50 results from PubChem BioAssay (NCI).

“And” between values parts separate entries of the source, which are not always exact repeats. Equal values may be shown once.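 Results reflect a 48-hour exposure of cells in 96-well plates to compound at five concentrations. GI50: concentration for 50% inhibition of growth. TGI: concentration producing complete growth inhibition.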

Test systems include HCC-2998 colon; HOP-62 NSCLC; IGROV1 ovarian; K-562 leukemia; NCI-H460 lung; OVCAR-4 ovarian; SF-268 CNS; SNB-75 CNS; TK-10 renal; UO-31 renal; A498 renal.
Experiment in all cases: NCI anticancer screen, dose series, 48 h

In the case of `O=C(N/N=C/c1cc(Cl)cc(Cl)c1[O-])c1ccccc1O.O=C(N/N=C/c1cc(Cl)cc(Cl)c1[O-])c1ccccc1O.[Fe+2]`, the TGI in the test on HCC-2998 colon was 26.2 µM; in the test on HOP-62 NSCLC, 44.4 µM; in the test on IGROV1 ovarian it was 56.5 µM; with K-562 leukemia it was more than 100 µM; in the test with NCI-H460 lung, 38.5 µM; with OVCAR-4 ovarian, 33.7 µM. Further, the TGI was 38.9 µM with SF-268 CNS, 72.9 µM in the test with SNB-75 CNS, more than 100 µM in the test on TK-10 renal and 48.7 µM with UO-31 renal.
With `CCN(CC)CCCNC(=O)c1ccccc1Nc1c(Cl)cccc1Cl`, the TGI with HCC-2998 colon worked out at 21.3 µM; in the test on HOP-62 NSCLC, 24.2 µM; with IGROV1 ovarian, 34 µM; in the test on K-562 leukemia, 23 µM; in the test on OVCAR-4 ovarian it was 23 µM; in the test on SF-268 CNS, 30.2 µM. The TGI turned out to be 15.4 µM in the test on SNB-75 CNS, 23.7 µM in the test on TK-10 renal and 20.3 µM in the test on UO-31 renal.
Consider `O=C(N/N=C/c1cc(Cl)cc(Cl)c1[O-])c1ccccc1O.O=C(N/N=C/c1cc(Cl)cc(Cl)c1[O-])c1ccccc1O.[Cu+2]`, for which the TGI worked out at 1.46 µM with HCC-2998 colon; 0.901 µM with HOP-62 NSCLC; 1.16 µM in the test on IGROV1 ovarian; 0.545 µM in the test with K-562 leukemia; 0.637 µM in the test on OVCAR-4 ovarian; 1.61 µM with SF-268 CNS. Moreover, the TGI with SNB-75 CNS amounted to 2.13 µM; in the test with TK-10 renal, 1.65 µM; in the test with UO-31 renal it was 1.41 µM.
For the compound `CC(=O)C(C(=O)C(=O)Nc1cc(Cl)c(Cl)cc1Cl)c1csc(N)n1` (centres undefined), the TGI with A498 renal, with HCC-2998 colon, with HOP-62 NSCLC, with IGROV1 ovarian, with K-562 leukemia and with NCI-H460 lung was more than 100 µM in each case. The TGI in the test on OVCAR-4 ovarian, with SF-268 CNS, in the test on SNB-75 CNS, with TK-10 renal and with UO-31 renal was more than 100 µM each time.
Consider `Cn1cc(-c2csc(-c3cn(CCCN4CCCCC4)c4ccc(Br)cc34)n2)c2cccnc21`, for which the GI50 in the test with A498 renal was 3.69 µM; in the test on HCC-2998 colon, 1.86 µM; with IGROV1 ovarian it was 1.63 µM; in the test on NCI-H460 lung, 1.87 µM; with OVCAR-4 ovarian it was 2.02 µM; in the test on SNB-75 CNS, 1.44 µM. Moreover, the GI50 in the test on TK-10 renal was 1.69 µM; with UO-31 renal it was 1.51 µM. For the same compound, the TGI came to 14 µM in the test on A498 renal; 3.61 µM in the test with HCC-2998 colon; 3.33 µM in the test with IGROV1 ovarian; 3.4 µM in the test on NCI-H460 lung; 4.19 µM in the test with OVCAR-4 ovarian; 5.8 µM with SNB-75 CNS. In addition, the TGI in the test on TK-10 renal is 3.16 µM; in the test on UO-31 renal it was 2.89 µM.
As to `CC(=O)OC1(C)CC(C)C(=O)C(C(O)CC2CC(=O)NC(=O)C2)C1` (centres undefined), the TGI is 0.266 µM and 0.0863 µM in the test with A498 renal; 0.0409 µM in the test on HCC-2998 colon; 0.0683 µM in the test with HOP-62 NSCLC; 0.0489 µM in the test on IGROV1 ovarian; 0.0322 µM in the test on K-562 leukemia; 0.363 µM and 0.224 µM with NCI-H460 lung. Also, the TGI in the test with OVCAR-4 ovarian is 0.178 µM and 0.0277 µM; with SF-268 CNS, 1.42 µM; in the test on SNB-75 CNS it was 0.0119 µM; in the test with TK-10 renal, 0.164 µM; in the test with UO-31 renal it was 0.643 µM and 0.389 µM. Further, the GI50 in the test with TK-10 renal was 0.0117 µM.
Regarding `O=[N+]([O-])c1cc(C(F)(F)F)cc2c1SC1=Nc3ccccc3CN12`, the TGI with A498 renal, with HCC-2998 colon, with HOP-62 NSCLC, in the test with IGROV1 ovarian, in the test on K-562 leukemia and in the test on NCI-H460 lung was more than 100 µM in each case. Moreover, the TGI in the test with OVCAR-4 ovarian, in the test with SF-268 CNS, in the test on SNB-75 CNS and with UO-31 renal was more than 100 µM each time.
In the case of `CCCCCC1CC(C(C)=O)CN1c1ccc(F)cc1` (centres undefined), the TGI in the test on A498 renal was more than 100 µM; in the test with HCC-2998 colon, more than 100 µM; with NCI-H460 lung, more than 100 µM; in the test on SF-268 CNS, more than 100 µM; with SNB-75 CNS it was 86.5 µM; with TK-10 renal, more than 100 µM. For the same compound, in the test on UO-31 renal, the TGI is more than 100 µM.
With `CCn1c(=O)c2c3ccc(O)cc3[nH]c2c2ccc(O)cc21`, the TGI in the test on A498 renal, in the test on HCC-2998 colon, in the test on HOP-62 NSCLC, in the test with IGROV1 ovarian, in the test with K-562 leukemia and in the test with OVCAR-4 ovarian was more than 100 µM in each case. Moreover, the TGI with SF-268 CNS, with SNB-75 CNS, in the test with TK-10 renal and with UO-31 renal was more than 100 µM in each case.
